According to ChEMBL document CHEMBL1201862, “PubChem BioAssay data set” (2004):
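Method: 48-hour compound exposure of cells in 96-well plates, five concentrations, linear interpolation of endpoints. Abbreviation: GI50, concentration required for 50% inhibition of growth.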 Active and inactive are the calls of the source. No stated cut-off is given here; in the data, active = GI50 up to about 1.1 µM and inactive = higher.

Legend:
Assay in all cases: DTP human tumour cell line panel, 48 h
A549 = test system: A549
UACC-62 = test system: UACC-62
786-0 = test system: 786-0
LOX IMVI = test system: LOX IMVI
RXF 393 = test system: RXF 393
HOP-62 = test system: HOP-62
UO-31 = test system: UO-31
SK-MEL-2 = test system: SK-MEL-2
OVCAR-4 = test system: OVCAR-4
SF-539 = test system: SF-539
SK-OV-3 = test system: SK-OV-3
UACC-257 = test system: UACC-257
A498 = test system: A498
HOP-92 = test system: HOP-92
PC-3 = test system: PC-3
Hs-578T = test system: Hs-578T
DU-145 = test system: DU-145
MCF7 = test system: MCF7
CAKI-1 = test system: CAKI-1

SMILES | GI50 (A549) | GI50 (UACC-62) | GI50 (786-0) | GI50 (LOX IMVI) | GI50 (RXF 393) | GI50 (HOP-62) | GI50 (UO-31) | GI50 (SK-MEL-2) | GI50 (OVCAR-4) | GI50 (SF-539) | GI50 (SK-OV-3) | GI50 (UACC-257) | GI50 (A498) | GI50 (HOP-92) | GI50 (PC-3) | GI50 (Hs-578T) | GI50 (DU-145) | GI50 (MCF7) | GI50 (CAKI-1)
COc1ccc(C(O)/C(=C/n2ccnc2)c2ccccc2)cc1OC (stereo unspecified) | > 100 µM (inactive) | > 100 µM (inactive) | > 100 µM (inactive) | > 100 µM (inactive) | > 100 µM (inactive) | > 100 µM (inactive) | > 100 µM (inactive) | > 100 µM (inactive) | > 100 µM (inactive) | > 100 µM (inactive) | > 100 µM (inactive) | > 100 µM (inactive) | > 100 µM (inactive) | > 100 µM (inactive) | – | – | – | – | –
Oc1c(Cl)cc2cc1-c1cc(cc(Cl)c1O)CCc1c(cc(Cl)c(O)c1Cl)-c1cc(Cl)c(c(Cl)c1O)/C=C\2 | 10.6 µM (inactive) | 8.69 µM (inactive) | 8.36 µM (inactive) | 9.44 µM (inactive) | 15.2 µM (inactive) | 7.74 µM (inactive) | – | 8.81 µM (inactive) | 9.04 µM (inactive) | – | 9.16 µM (inactive) | 13.6 µM (inactive) | 14.3 µM (inactive) | 16.8 µM (inactive) | 8.3 µM (inactive) | 11.1 µM (inactive) | 9.18 µM (inactive) | – | –
O=C(O)c1ccn(-c2cccc(-n3ccc(C(=O)O)n3)n2)n1 | > 100 µM (inactive) | > 100 µM (inactive) | > 100 µM (inactive) | > 100 µM (inactive) | > 100 µM (inactive) | > 100 µM (inactive) | > 100 µM (inactive) | > 100 µM (inactive) | > 100 µM (inactive) | > 100 µM (inactive) | > 100 µM (inactive) | > 100 µM (inactive) | – | – | > 100 µM (inactive) | > 100 µM (inactive) | > 100 µM (inactive) | > 100 µM (inactive) | > 100 µM (inactive)
COc1ccc(COCCOCc2nc(C#N)c(N)o2)cc1 | > 100 µM (inactive) | > 100 µM (inactive) | > 100 µM (inactive) | > 100 µM (inactive) | > 100 µM (inactive) | > 100 µM (inactive) | > 100 µM (inactive) | > 100 µM (inactive) | > 100 µM (inactive) | > 100 µM (inactive) | > 100 µM (inactive) | > 100 µM (inactive) | > 100 µM (inactive) | > 100 µM (inactive) | > 100 µM (inactive) | – | > 100 µM (inactive) | > 100 µM (inactive) | 89.9 µM (inactive)
COP(=O)(OC)C(NC(=O)C(F)(F)F)(c1ccccc1)C(F)(F)F (stereo unspecified) | > 100 µM (inactive) | > 100 µM (inactive) | > 100 µM (inactive) | > 100 µM (inactive) | > 100 µM (inactive) | > 100 µM (inactive) | > 100 µM (inactive) | > 100 µM (inactive) | > 100 µM (inactive) | > 100 µM (inactive) | > 100 µM (inactive) | > 100 µM (inactive) | > 100 µM (inactive) | > 100 µM (inactive) | – | – | – | – | > 100 µM (inactive)
COC(CO[Si](C)(C)N[Si](C)(C)OCC(OC)c1ccccc1)c1ccccc1 (stereo unspecified) | > 100 µM (inactive) | > 100 µM (inactive) | > 100 µM (inactive) | > 100 µM (inactive) | > 100 µM (inactive) | > 100 µM (inactive) | > 100 µM (inactive) | > 100 µM (inactive) | > 100 µM (inactive) | – | > 100 µM (inactive) | > 100 µM (inactive) | > 100 µM (inactive) | > 100 µM (inactive) | > 100 µM (inactive) | – | > 100 µM (inactive) | > 100 µM (inactive) | > 100 µM (inactive)
O=[N+]([O-])c1cnn(C2=CNc3ccccc3N=C2)c1 | > 100 µM (inactive) | > 100 µM (inactive) | > 100 µM (inactive) | – | 46.7 µM (inactive) | > 100 µM (inactive) | > 100 µM (inactive) | > 100 µM (inactive) | – | > 100 µM (inactive) | > 100 µM (inactive) | > 100 µM (inactive) | – | > 100 µM (inactive) | – | – | – | – | –
CCOP(=O)(OCC)/C(=C\n1c(=S)[nH]c2cc(C)ccc21)C(=O)OC | > 100 µM (inactive) | > 100 µM (inactive) | > 100 µM (inactive) | > 100 µM (inactive) | > 100 µM (inactive) | > 100 µM (inactive) | > 100 µM (inactive) | > 100 µM (inactive) | > 100 µM (inactive) | > 100 µM (inactive) | > 100 µM (inactive) | > 100 µM (inactive) | > 100 µM (inactive) | > 100 µM (inactive) | – | – | > 100 µM (inactive) | > 100 µM (inactive) | > 100 µM (inactive)
CC(=O)c1c2c(cc3c1CCC3)CCC2 | > 100 µM (inactive) | > 100 µM (inactive) | > 100 µM (inactive) | > 100 µM (inactive) | – | > 100 µM (inactive) | 54.5 µM (inactive) | > 100 µM (inactive) | 69.7 µM (inactive) | > 100 µM (inactive) | > 100 µM (inactive) | > 100 µM (inactive) | 36.5 µM (inactive) | – | 55.3 µM (inactive) | 76.6 µM (inactive) | > 100 µM (inactive) | > 100 µM (inactive) | > 100 µM (inactive)
CC1(C)OCC(C2OC(OC(=O)c3ccc([N+](=O)[O-])cc3)C3OC(C)(C)OC23)O1 (stereo unspecified) | > 100 µM (inactive) | > 100 µM (inactive) | 51.8 µM (inactive) | > 100 µM (inactive) | 58.1 µM (inactive) | 27.3 µM (inactive) | 66.1 µM (inactive) | > 100 µM (inactive) | > 100 µM (inactive) | > 100 µM (inactive) | > 100 µM (inactive) | > 100 µM (inactive) | > 100 µM (inactive) | – | > 100 µM (inactive) | – | > 100 µM (inactive) | > 100 µM (inactive) | > 100 µM (inactive)
NCCCN(CCCCN(CCCN)Cc1ccccc1)Cc1ccccc1 | 74.5 µM (inactive) | > 100 µM (inactive) | 23.1 µM (inactive) | 19.3 µM (inactive) | 85.3 µM (inactive) | – | 26.1 µM (inactive) | – | 28.6 µM (inactive) | 27.6 µM (inactive) | 62.5 µM (inactive) | 62.1 µM (inactive) | > 100 µM (inactive) | > 10 µM (inactive) | – | 13 µM (inactive) | 42.2 µM (inactive) | 25.1 µM (inactive) | 15.8 µM (inactive)
O=c1oc2nc(-c3ccccc3)cc(C(F)(F)F)c2n1Cc1ccccc1 | 8.69 µM (inactive) | 4.24 µM (inactive) | 5.43 µM (inactive) | 9.71 µM (inactive) | 2.71 µM (inactive) | 12.2 µM (inactive) | – | 6.43 µM (inactive) | 11.6 µM (inactive) | 7.5 µM (inactive) | 7.8 µM (inactive) | > 37.8 µM (inactive) | 2.07 µM (inactive) | 85.5 µM (inactive) | 3.46 µM (inactive) | – | 11.3 µM (inactive) | 0.995 µM (active) | 7.8 µM (inactive)
O=C1CCCC2=C1CC1=C(CCCC1=O)N2c1ccccc1C(=O)O | > 100 µM (inactive) | > 100 µM (inactive) | > 100 µM (inactive) | > 100 µM (inactive) | > 100 µM (inactive) | – | > 100 µM (inactive) | – | > 100 µM (inactive) | > 100 µM (inactive) | > 100 µM (inactive) | – | > 100 µM (inactive) | > 100 µM (inactive) | > 100 µM (inactive) | > 100 µM (inactive) | – | > 100 µM (inactive) | > 100 µM (inactive)
Cc1cccc2c(=O)c3cccc(CC(=O)O)c3oc12 | > 100 µM (inactive) | > 100 µM (inactive) | > 100 µM (inactive) | > 100 µM (inactive) | – | > 100 µM (inactive) | > 100 µM (inactive) | > 100 µM (inactive) | > 100 µM (inactive) | > 100 µM (inactive) | > 100 µM (inactive) | > 100 µM (inactive) | > 100 µM (inactive) | > 100 µM (inactive) | > 100 µM (inactive) | > 100 µM (inactive) | – | > 100 µM (inactive) | > 100 µM (inactive)
Nc1ccc(Nc2cc(O)nc(O)n2)cc1 | > 100 µM (inactive) | > 100 µM (inactive) | > 100 µM (inactive) | > 100 µM (inactive) | – | > 100 µM (inactive) | – | – | > 100 µM (inactive) | > 100 µM (inactive) | > 100 µM (inactive) | > 100 µM (inactive) | > 100 µM (inactive) | – | > 100 µM (inactive) | > 100 µM (inactive) | > 100 µM (inactive) | > 100 µM (inactive) | > 100 µM (inactive)
c1ccc([P+](CCSCCSCC[P+](c2ccccc2)(c2ccccc2)c2ccccc2)(c2ccccc2)c2ccccc2)cc1 | > 100 µM (inactive) | 64.4 µM (inactive) | > 100 µM (inactive) | – | > 100 µM (inactive) | > 100 µM (inactive) | > 100 µM (inactive) | > 100 µM (inactive) | > 100 µM (inactive) | > 100 µM (inactive) | > 100 µM (inactive) | > 100 µM (inactive) | > 100 µM (inactive) | > 100 µM (inactive) | – | > 100 µM (inactive) | > 100 µM (inactive) | 40.5 µM (inactive) | –
O=[N+]([O-])c1ccc(-c2nnc(C34CC5CC(CC(C5)C3)C4)o2)cc1 | > 100 µM (inactive) | > 100 µM (inactive) | > 100 µM (inactive) | > 100 µM (inactive) | > 100 µM (inactive) | > 100 µM (inactive) | > 100 µM (inactive) | > 100 µM (inactive) | > 100 µM (inactive) | > 100 µM (inactive) | > 100 µM (inactive) | – | > 100 µM (inactive) | > 100 µM (inactive) | > 100 µM (inactive) | > 100 µM (inactive) | > 100 µM (inactive) | – | > 100 µM (inactive)
